Experiment [1] has as its system ACSVL3. As to the kind of experiment: Acyl-CoA synthetase activity of control vs ACSVL3-deficient U87 cells with candidate small molecule inhibitors. It is filed as biochemical, human. Conditions: 80 μM drug; palmitic acid substrate; preliminary studies, FIG. 14. How it is done:
Acyl-CoA synthetase assays. Activation of [1-^14C]palmitate (C16:0) or [1-^14C]lignocerate (C24:0) (Moravek Biochemicals, Brea Calif.) to their CoA derivatives was measured in frozen/thawed cell suspensions or post-nuclear supernatants of xenograft tissue homogenates as previously described (9, 19). Assays contained 15 or 60 μg cell or tissue protein for C16:0 and C24:0 fatty acid substrates, respectively.
For this study, we examined the effects of candidate small molecule inhibitors on the acyl-CoA synthetase activity of control U87 glioblastoma cells and ACSVL3-deficient U87 cells. The 16-carbon fatty acid, palmitic acid, was used as substrate. Drugs were solubilized in dimethylsulfoxide (DMSO, 10 mM) and diluted with phosphate-buffered saline (PBS, 0.8 mM) prior to their inclusion in enzyme assays; the final concentration of drug in the assay was 80 μM. Control incubations contained the vehicle, DMSO diluted in PBS, only. The assay measures the combined enzyme activity of all acyl-CoA synthetases found in U87 cells that are capable of using palmitic acid as substrate. A specific inhibitor of ACSVL3 is one in which there is partial inhibition of total cellular enzyme activity in control U87 cells (grey bars), but not in ACSVL3-deficient U87 cells (black bars).

Experiment [2] has as its system ACSVL3. In words: ACSVL3 expression in U373 cells with transcription or translation inhibitor, without or with HGF. It is filed as cell-based, human. Conditions: actinomycin D 20 μg/ml, cycloheximide 5 μM; for HGF-induced increase in ACSVL3 expression: HGF 6 hours. How it is done:
We then investigated whether the increase in ACSVL3 protein in U373 cells was due to increased transcription of the ACSVL3 gene, or increased translation of ACSVL3 mRNA. U373 cells were incubated without or with HGF for 6 hours in the absence and presence of an inhibitor of transcription, actinomycin D, or the protein synthesis (translation) inhibitor, cycloheximide. Actinomycin D (20 μg/ml) and cycloheximide (5 μM) were added to the culture medium 16 and 8 hours, respectively, prior to the addition of HGF.

Another experiment concerns Akt. As to the kind of experiment: Akt signaling after HGF in control and ACSVL3 KD U87 cells (Western blot). It is filed as cell-based, human. Conditions: HGF 20 ng/ml. How it is done: A & B. Effect of HGF treatment on Akt phosphorylation and stability. Control and ACSVL3-3 KD U87 cells were incubated with HGF (20 ng/ml) for the indicated time prior to analysis for total Akt and phospho-Akt levels by Western blot. A, LiCOR Odyssey images; control and KD images were obtained simultaneously. B, Quantitation of the LiCOR data. C. Effect of caspase inhibition on Akt stability. One control and two different knockdown clones produced using the ACSVL3-3 shRNA plasmid were incubated with HGF (20 ng/ml) for the indicated time in the absence or presence of the pan-caspase inhibitor, Z-VAD-FMK (50 μM), prior to analysis for total Akt and phospho-Akt levels by Western blot. […] Left, adherent growth was measured 11.5 days post-transfection as described in the legend to FIG. 4A. Right, anchorage-independent growth was measured by colony formation in soft agar on day 17 post-transfection as described in the legend to FIG. 4B. Mean±standard error is shown; statistical significance was determined by one-way ANOVA with Bonferroni's multiple comparison test. ***, p<0.001 vs. control vector; **, p<0.01 vs. control vector; n.s., p>0.05 vs. control myr-Akt.
Immunohistochemistry, immunofluorescence, and Western blotting. […] ACSVL3 was detected on Western blots with SuperSignal West Pico chemiluminescent substrate (Pierce Biotechnology, Rockford Ill.). […]

For experiment [3], the system named is ACSVL3. In words: ACSVL3 expression in Mayo-22 glioma cells treated with HGF or EGF (Western blot). The experiment is classed as cell-based, human. Conditions: Mayo 22 cells; HGF 20 ng/ml or EGF 30 ng/ml, 16 hrs. How it is done:
(§1) A. Human U87, U373, and Mayo-22 glioma cells were grown to ˜80% confluence. Cells were either untreated or incubated 16 hrs in the presence of HGF (20 ng/ml; gift from Genentech; South San Francisco Calif.) or EGF (30 ng/ml; Calbiochem/EMD; San Diego Calif.) before harvesting and Western blot analysis for ACSVL3 expression. Each lane contained 30 μg total cellular protein. Actin was detected as a loading control. The three sections were from the same Western blot; images were obtained simultaneously. B. U87 cells stably expressing constitutively active EGFR (EGFRvIII) or corresponding control U87 cells were harvested and analyzed by Western blot. Actin was detected as a loading control. C. Tumors were produced in the flanks of athymic nude mice (n=12) by s.c. injection (2 sites per mouse) of 4×10^6 U87 cells. When tumors size reached ˜300 mm^3 (day 14), animals were randomly divided into two groups of 6 mice. […]
(§2) Immunohistochemistry, immunofluorescence, and Western blotting. […] ACSVL3 was detected on Western blots with SuperSignal West Pico chemiluminescent substrate (Pierce Biotechnology, Rockford Ill.). Total and phospho-Akt (ser473) were detected with antibodies from BD Biosciences (San Jose Calif.) and Cell Signaling Technology (Danvers Mass.), respectively, and quantitated with the LiCOR Odyssey dual wavelength infrared system. Protein was determined by the method of Lowry et al. (16).

The test system of experiment [4] is ACSVL3. In words: ACSVL3 expression in U87 glioma cells treated with HGF or EGF (Western blot). The experiment is classed as cell-based, human. Conditions: HGF 20 ng/ml or EGF 30 ng/ml, 16 hrs. How it is done: as §1, §2
Experiment [5] relates to ACSVL3. In words: ACSVL3 expression in U373 glioma cells treated with HGF or EGF (Western blot). It is filed as cell-based, human. Conditions: for ACSVL3 expression: HGF 20 ng/ml or EGF 30 ng/ml, 16 hrs. The protocol:
A. Human U87, U373, and Mayo-22 glioma cells were grown to ˜80% confluence. Cells were either untreated or incubated 16 hrs in the presence of HGF (20 ng/ml; gift from Genentech; South San Francisco Calif.) or EGF (30 ng/ml; Calbiochem/EMD; San Diego Calif.) before harvesting and Western blot analysis for ACSVL3 expression. Each lane contained 30 μg total cellular protein. Actin was detected as a loading control. The three sections were from the same Western blot; images were obtained simultaneously. B. U87 cells stably expressing constitutively active EGFR (EGFRvIII) or corresponding control U87 cells were harvested and analyzed by Western blot. Actin was detected as a loading control. C. Tumors were produced in the flanks of athymic nude mice (n=12) by s.c. injection (2 sites per mouse) of 4×10^6 U87 cells. When tumors size reached ˜300 mm^3 (day 14), animals were randomly divided into two groups of 6 mice. One group received i.p. injection (100 μg/20 g body wt) of anti-HGF mAb (L2G7) and the other group received isotype control mAb (5G8) on days 14, 16, and 18. Mice were sacrificed on day 20. Tumor homogenates (50 μg protein) were subjected to Western blot analysis for ACSVL3 expression. Actin expression was used as a loading control.
Immunohistochemistry, immunofluorescence, and Western blotting. Immunohistochemical staining for ACSVL3 and ACSBG1, and immunofluorescence analysis of ACSVL3, were performed using affinity-purified antibodies as described (9, 15). ACSVL3 was detected on Western blots with SuperSignal West Pico chemiluminescent substrate (Pierce Biotechnology, Rockford Ill.). Total and phospho-Akt (ser473) were detected with antibodies from BD Biosciences (San Jose Calif.) and Cell Signaling Technology (Danvers Mass.), respectively, and quantitated with the LiCOR Odyssey dual wavelength infrared system. Protein was determined by the method of Lowry et al. (16).
Further characterization of induction of ACSVL3 expression in U373 cells. Human U373 glioma cells have low ACSVL3 expression unless treated with hepatocyte growth factor (HGF). […]

Numbered stars: 1 amine (or outer) side, 2 acyl side, 3 side chain; on linkers, the order of the positions; unused ones are H or OH. Bridge positions count the residues as written; N and C are the ends. Square brackets hold non-standard residues; d marks the D form. Peptide text beside a SMILES is read from it. I, II: the chains in the order shown. * marks the point of attachment. Actinocin(9to1) = Cc1c2oc3c(C)ccc(C(=O)[*:1])c3nc-2c(C(=O)[*:2])c(N)c1=O; NMeV = CN[C@H](C(=O)O)C(C)C; Cbz = O=C(OCc1ccccc1)*; Sar = CNCC(=O)O; CH2F = FC*

`CN(C)CCCN1c2ccccc2Sc2ccc(C(F)(F)F)cc21` [Triflupromazine]: the “inhibition of acyl-CoA synthetase activity in control vs ACSVL3-deficient U87 cells (specificity for ACSVL3)” value with ACSVL3 [1] was “exhibited specificity for ACSVL3”.
Consider `Cc1c2oc3c(C)ccc(C(=O)N[C@@H]4C(=O)N[C@H](C(C)C)C(=O)N5CCC[C@H]5C(=O)N(C)CC(=O)N(C)[C@@H](C(C)C)C(=O)O[C@@H]4C)c3nc-2c(C(=O)N[C@@H]2C(=O)N[C@H](C(C)C)C(=O)N3CCC[C@H]3C(=O)N(C)CC(=O)N(C)[C@@H](C(C)C)C(=O)O[C@@H]2C)c(N)c1=O` [actinomycin D] (I: T[dV]P[Sar][NMeV] / II: T[dV]P[Sar][NMeV]; ester I:1-I:C, II:1-II:C; linker I:N-II:N via Actinocin(9to1)), for which, in the experiment with ACSVL3 [2], the “HGF-induced increase in ACSVL3 expression” value is recorded as “blocked the HGF-induced increase in ACSVL3 expression” and the “ACSVL3 expression in the absence of HGF” value is given as “neither actinomycin D nor cycloheximide affected ACSVL3 expression”.
`CN(C)CCCN1c2ccccc2Sc2ccc(Cl)cc21` [chlorpromazine]: the “inhibition of acyl-CoA synthetase activity in control vs ACSVL3-deficient U87 cells (specificity for ACSVL3)” value in the experiment on ACSVL3 [1] is “exhibited specificity for ACSVL3”.
On to `C[C@@H]1C[C@@H]([C@H](O)CC2CC(=O)NC(=O)C2)C(=O)[C@@H](C)C1` [cycloheximide], for which, in the experiment with ACSVL3 [2], the “HGF-induced increase in ACSVL3 expression” value is reported as “blocked the HGF-induced increase in ACSVL3 expression” and the “ACSVL3 expression in the absence of HGF” value was “neither actinomycin D nor cycloheximide affected ACSVL3 expression”.
Regarding `Cc1cc(O)c2c(c1)C(=O)c1cc(O)cc(O)c1C2=O` [emodin], the “inhibition of acyl-CoA synthetase activity in control vs ACSVL3-deficient U87 cells (specificity for ACSVL3)” value in the experiment with ACSVL3 [1] was “inhibit enzyme activity similarly in both control and ACSVL3-deficient U87 cells”.
On to `OCCN1CCN(CC/C=C2/c3ccccc3Sc3ccc(C(F)(F)F)cc32)CC1` [flupenthixol], for which the “inhibition of acyl-CoA synthetase activity in control vs ACSVL3-deficient U87 cells (specificity for ACSVL3)” value in the experiment with ACSVL3 [1] is “inhibit both control and ACSVL3-deficient cells, but show greater inhibition in control U87 cells”.
Same read-out and setting: as for `O=C1NCN(c2ccccc2)C12CCN(CCCC(c1ccc(F)cc1)c1ccc(F)cc1)CC2` [fluspirilene], the entry is “inhibit enzyme activity similarly in both control and ACSVL3-deficient U87 cells”; as for `OCCN1CCN(CCCN2c3ccccc3Sc3ccc(Cl)cc32)CC1` [perphenizine], “exhibited specificity for ACSVL3”; as for `Nc1ccc(/N=N/c2ccccc2)c(N)n1` [phenazopyridine], “inhibit enzyme activity similarly in both control and ACSVL3-deficient U87 cells”.
With `CC(CN1c2ccccc2Sc2ccccc21)N(C)C` (stereo not shown) [promethazine], the “inhibition of acyl-CoA synthetase activity in control vs ACSVL3-deficient U87 cells (specificity for ACSVL3)” value in the experiment on ACSVL3 [1] was “inhibit enzyme activity similarly in both control and ACSVL3-deficient U87 cells”.
On the same count and under the same terms, as for `CN1CCN(CCCN2c3ccccc3Sc3ccc(C(F)(F)F)cc32)CC1` [trifluperazine], the entry is “inhibit both control and ACSVL3-deficient cells, but show greater inhibition in control U87 cells”.
As for Cbz-Val-Ala-Asp-CH2F, the “Akt response to HGF stimulation under caspase inhibition” value with Akt (ACSVL3 KD U87 cells, Z-VAD-FMK 50 μM) is recorded as “normalized the Akt response to HGF stimulation”.
As to “EGF: EGFR ligand, epidermal growth factor”, the ACSVL3 expression result with ACSVL3 [3] is reported as “increased ACSVL3 expression”; in the experiment with ACSVL3 [4], “not increased above its high basal expression levels”; in the experiment on ACSVL3 [5], “increased ACSVL3 expression”.
“HGF: Hepatocyte growth factor, c-Met agonist”: the ACSVL3 expression entry in the experiment on ACSVL3 [3] was “induce ACSVL3 expression levels”; in the experiment on ACSVL3 [4], “not increased above its high basal expression levels”; with ACSVL3 [5], “induce ACSVL3 expression levels”. In addition, in the experiment on Akt (control-transfected U87 glioma cells), the “Akt phosphorylation (Ser-473)” value was “increased rapidly and remained elevated for up to two hours”. Besides, in the experiment with ACSVL3 [5] (FIG. 12), the “time course of induction of ACSVL3 protein” value is given as “increased in U373 cells as early as 2 hours”.
